Data taken from patent US11603380B2 (Centre national de la recherche scientifique, priority 2018, dated 2023).
Like-named read-outs stand apart in the source and are kept apart here.

How the values were obtained:
[1] = tested on: human cytomegalovirus (HCMV) (Davis); test: microbe, parasite or virus in culture; type: cell-based; conditions: read-out: EC50 HCMV (Davis)
[2] = tested on: herpes simplex virus 1 (HSV-1) (KOS); test: microbe, parasite or virus in culture; type: cell-based; conditions: read-out: EC50 HSV-1 (KOS)
[3] = tested on: VZV-BAC-Luc TK− strain (ACV^R); test: microbe, parasite or virus in culture; type: cell-based, varicella zoster virus; conditions: read-out: approximate EC50, ACV^R VZV
[4] = tested on: HSV-2 (G); test: microbe, parasite or virus in culture; type: cell-based, herpes simplex virus 2; conditions: read-out: EC50 HSV-2 (G)
[5] = tested on: HEL cell cultures
[6] = tested on: VZV-BAC-Luc; test: SCID-Hu mouse model of VZV replication (human fetal skin xenografts); type: in vivo, CB.17 scid/beige male mice; conditions: for VZV spread / virus yield (Total Flux) vs Vehicle: once daily Days 0-8, 5 26 mg/kg subcutaneous, cidofovir 10 mg/kg intraperitoneal, yield compared Day 9, p=0.0051
Method: SCID-Hu mouse model of VZV replication. CB.17 scid/beige male mice (Charles River) were implanted subcutaneously with human fetal skin (the same type of specimens used for the skin organ culture assay). After 3-4 weeks engraftment, the skin implants were inoculated with VZV-BAC-Luc or VZV-ORF57-Luc. The mice were divided into groups (N=10-13) for treatment or controls. The positive control antiviral drug was cidofovir, 10 mg/kg/day given by intraperitoneal injection. The negative control was the vehicle Cremophor-DMSO-saline (1:1:8) given by subcutaneous injection. The treatment groups were 5 in Cremophor-DMSO-saline, 26, 13, or 6.5 mg/kg/day, given by subcutaneous injection. Treatment began 2 hours or 3 days after the inoculation surgery and continued daily or alternating days for up to 9 days. The mice were scanned in the IVIS-200 instrument daily from Day 1-10. The mice were weighed before the start of the study and daily during the treatment phase.
Statistical analysis: The results were analyzed for statistical significance by Student's t test or by ANOVA and Dunnett's post hoc test of multiple comparisons (GraphPad Prism).
CB.17 scid/beige male mice were implanted subcutaneously with human fetal skin (the same type of specimens used for the skin organ culture assay). After 3-5 weeks engraftment period, the skin implants were inoculated with VZV-BAC-Luc. The mice were divided into 3 groups of 10-13 mice: vehicle (Cremophor-DMSO-saline 1:1:8), cidofovir 10 mg/kg in saline, and 5 26 mg/kg in Cremophor-DMSO-saline. 5 at 26 mg/kg is the molar equivalent dose to cidofovir 10 mg/kg. Cidofovir was given by the intraperitoneal route, once daily, from Days 0-8. Vehicle and 5 were given by the subcutaneous route, once daily, from Days 0-8. The mice were scanned in the IVIS-200 instrument daily from Day 1-9 and the Total Flux values indicated VZV-infected cells in the skin xenografts (FIG. 3). […] VZV grew normally in the Vehicle group.
In addition, a dose-ranging and delayed treatment assay was included to determine the lowest effective dose (FIGS. 5A and 5B). As before, 5 26 mg/kg was given once daily, by the subcutaneous route, from Days 0-6. This group was compared to Vehicle (Cremophor-DMSO-saline). In the dose ranging assay, 5 high dose (26 mg/kg), medium dose (13 mg/kg) or low dose (6.5 mg/kg) was given once daily, by the subcutaneous route, from Days 3-9. The treatment phase was delayed to Day 3 because this is more clinically relevant.

[7] = tested on: VZV-BAC-Luc in human fetal skin; test: Human skin organ culture model of VZV replication; type: cell-based, varicella zoster virus; conditions: for VZV yield in skin organ culture compared to vehicle: Day 11, cidofovir 5 μM, 5 at 1 and 5 μM (p<0.0001 vs vehicle)
[8] = tested on: VZV-BAC-Luc strain (wild type); test: microbe, parasite or virus in culture; type: cell-based, varicella zoster virus; conditions: read-out: approximate EC50, wild type VZV
[9] = Weight and condition of mice during treatment in the SCID-Hu model; conditions: for change in weight during the treatment phase: first study, Days 0-8, 5 26 mg/kg sc, cidofovir 10 mg/kg ip
[10] = tested on: HSV-1 (KOS ACV) TK−; test: microbe, parasite or virus in culture; type: cell-based, herpes simplex virus 1
[11] = tested on: human cytomegalovirus (HCMV) (AD-169); test: microbe, parasite or virus in culture; type: cell-based; conditions: read-out: EC50 HCMV (AD-169)
[12] = in vitro; conditions: human, Cytotoxicity CC50
[13] = tested on: Vaccinia Virus; test: microbe, parasite or virus in culture; type: cell-based; conditions: read-out: EC50 Vaccinia Virus
[14] = tested on: HBV; test: Anti-HBV activity, Huh7 cells transfected with pHBV1.1×, intra-capsid viral DNA by real-time PCR; type: cell-based, Hepatitis B virus; conditions: 7 days, read-out: IC50 (HBV replication) (converted)
[15] = tested on: Myxomatosis Virus (MYXV); type: cell-based
[16] = tested on: varicella-zoster virus (VZV) TK+ (OKA); test: microbe, parasite or virus in culture; type: cell-based; conditions: read-out: EC50 VZV TK+ (OKA)
[17] = tested on: Equine Herpes V 1; type: cell-based, Equine herpes virus
[18] = tested on: Equine Herpes V 4; test: Virus infection assay, Equine Herpes V 4, permissive cells; type: cell-based
Method: (§1) 2. Virus Infection (Protocols for: Adeno Virus, Cytomegalo Virus, Poxvirus, Myxo Virus, Equine Herpes Virus)
(§2) Cognate permissive cell lines were used for each virus infection assay.
(§3) Cells were grown in DMEM without phenol red (Sigma-Aldrich) 10% SVF, Pen-strep, 1× sodium pyruvate, 1× Glutamax.
(§4) Virus infection was carried out on permissive cells seeded in either in 96 wells plate or in 6 well plates, in duplicate at one or two MOI (multiplicity of infection) and 7 concentrations of LA6. • Day 0: cells seeded at 10 k per well in Corning Glass Bottom 96 well plates in 200 μl of DMEM without phenol red or 200 k in 6 well plates. • Day 1: cells were treated with LA6 (from 1 to 0.0037 μM by […] dilutions) in duplicate and were infected at different MOI according to the tested virus • Day 2 to day 7: cells were fixed with Formalin 10 min at room temperature. Cells were washed with 200 μL PBS and 100 μL PBS/Hoechst® 33342 (1/1000) per well. 96 well plates were kept at 4° C. in the dark until data acquisition Image acquisition and analysis for high content quantification was performed on a Thermo Cellomics Arrayscan™ VTI microscope using a modified compartmental analysis algorithm for fluorescent virus. For unmodified virus, ECP progression or plaque count was determined visually by double blind analysis.

[19] = tested on: HEL cells; conditions: read-out: Cytotoxicity CC50; concentration reducing cell growth by 50%; HCMV/VZV table
[20] = tested on: Adeno virus; test: Virus infection assay, Adeno virus, permissive cells; type: cell-based
Method: as §1, §2, §3, §4

[21] = tested on: Feline Herpes Virus; test: organism not typed; type: cell-based; conditions: read-out: EC50 Feline Herpes Virus
[22] = tested on: HSV-1, HSV-2, HSV-1 (TK−), VV, FHV; type: cell-based
[23] = tested on: Vaccinia Virus TK−; type: cell-based
[24] = Human alphaherpesvirus 3, ARPE-19, 72 h
[25] = ARPE-19 cells, 3 days, bioluminescence, estimated by interpolation

With `Nc1ccn(C[C@@H](CO)OCP(=O)(O)O)c(=O)n1` [Cidofovir, reference compound] the EC50 ([1]; Human betaherpesvirus 5, HEL) was 1000 nM, the EC50 ([2]; Human alphaherpesvirus 1, HEL) was 4500 nM and the EC50 [3, 24] was roughly 2500 nM. The EC50 ([4]; Human alphaherpesvirus 2, HEL) was 1000 nM, the “Cytotoxicity MCC” value ([5]; human) was greater than 100 µM and the “VZV spread / virus yield (Total Flux) vs Vehicle” value [6] was “prevented VZV spread”. For the same compound, the “VZV yield in skin organ culture compared to vehicle” value [7] was “effective”, the EC50 [8, 24] was roughly 2500 nM and the “change in weight during the treatment phase” value [9] was “moderate weight loss”. The EC50 ([10]; Human alphaherpesvirus 1, read-out: EC50 HSV-1 (KOS ACV) TK−) was 2800 nM, the EC50 ([11]; Human betaherpesvirus 5, AD169, HEL) was 1200 nM and the CC50 [12] was greater than 100 µM. The EC50 ([13]; Orthopoxvirus vaccinia, HEL) was 112 µM.
With “[(E)-2-[(2,6-diaminopyrimid in-4-yl)oxymethyl]-4-[3-hexadecoxypropoxy (isopropoxycarbonyloxymethoxy)phosphoryl]but-2′-enyl]acetate [Compound 13]” the IC50 [14] was 1600 nM.
Work on “[(Z)-2-[(2,6-diaminopyrimidin-4-yl)oxymethyl]-4-[3-hexadecoxypropoxy (isopropoxycarbonyloxymethoxy)phosphoryl]but-2′-enyl]acetate [Compound (5)]” yielded an EC50 [15] of 51 nM, an EC50 [1] of 700 nM and an EC50 [16] of 3.5 nM. It also gave an EC50 [17] of less than 125 nM, an EC50 [18] of less than 125 nM and an EC50 [2] of 43 ± 37 nM. For the same compound, the EC50 [3, 25] was roughly 10 nM, the EC50 [4] was 15 nM and the “Cytotoxicity MCC” value [5] was 60 µM. The “antiviral effect, delayed treatment, low dose” value ([6]; 6.5 mg/kg once daily subcutaneous Days 3-9, yield Day 10 p=0.029) was “equally effective”, the “antiviral effect, delayed treatment, medium dose” value ([6]; 13 mg/kg once daily subcutaneous Days 3-9, yield Day 10 p=0.029) was “equally effective” and the “Virus yield on Day 7 vs Vehicle” value ([6]; 26 mg/kg once daily subcutaneous Days 0-6, p=0.008) was “significantly less than the Vehicle group”. For the same compound, the “antiviral effect, delayed treatment, high dose” value ([6]; 26 mg/kg once daily subcutaneous Days 3-9, yield Day 10 p=0.029) was “also effective”, the “VZV spread / virus yield (Total Flux) vs Vehicle” value [6] was “prevented VZV spread” and the “low dose effectively preventing VZV spread” value ([6]; once daily subcutaneous Days 3-9) was 6.5 mg/kg. The “VZV yield in skin organ culture compared to vehicle” value [7] was “effective”, the “concentration preventing VZV spread in skin” value ([7]; skin organ culture) was no less than 1 µM and the CC50 [19] was 660 nM. It also gave an EC50 [20] of less than 37 nM, an EC50 ([20]; text statement) of less than 37 nM and an EC50 [21] of 350 nM. The EC50 [8, 25] was roughly 10 nM, the “change in weight during the treatment phase” value [9] was “did not cause weight loss” and the “overt toxicity (weight and condition of the mice)” value ([9]; repeat and dose-ranging study, 6.5-26 mg/kg sc) was “did not cause overt toxicity”. The IC50 [14] was 400 nM, the EC50 ([10]; read-out: EC50 HSV-1 (KOS ACV) TK−) was 8 ± 2 nM and the EC50 [11] was 1790 nM. The “activity level against HSV-1, HSV-2, HSV-1 (TK−), VV, FHV” value [22] was “micromolar and sub-micromolar activities”, the EC50 ([22]; read-out: EC50 against both tested viruses) was less than 350 nM and the EC50 ([23]; read-out: EC50 Vaccinia Virus TK−) was less than 30 nM. The EC50 ([23]; read-out: EC50 vaccicnia virus TK-) was less than 30 nM and the EC50 [13] was 0.115 ± 0.11 µM.
